Reference: patent US4277498A, “Amides” (Burroughs Wellcome Co., priority 1976, dated 1981)
Counter-ions that a name gives are not always drawn. Like-named read-outs stand apart in the source and are kept apart here.

Columns and labels:
[1] = Anti-tetrabenazine test (ptosis and sedation), Example 37; assay type: in vivo, Female albino mice; details: Mus musculus, po
Description: Female albino mice were grouped, six per cage. Compounds of formula (I) as the respective salt in saline solution were administered orally, thirty minutes prior to the administration of tetrabenazine, 50 mg/kg, i.p. The animals were scored according to the method of V. G. Vernier, H. M. Hanson and C. A. Stone: Psychosomatic medicine, ch.

[2] = tetrabenazine-induced sedation test in the rat (general statements on antidepressant activity); assay type: in vivo; details: acceptable salts
in vivo = details: mouse, po, mice, p.o. as salt in saline, deaths within two days
Description: Several groups of mice were treated with specific doses of compounds of formula (I) as orally administered salts in saline solution. After treatment of each group with a different dose of a specific compound the number of mice dead in each group within two days was noted. […] The LD50 value is the lethal dose required to kill half of the treated animals.
The procedure was repeated with other groups of mice for other compounds of formula (I).

[3] = ptosis, mice, p.o. as salt in saline, 30 min before tetrabenazine 50 mg/kg i.p., read-out: Anti-depressant activity, approx. ED50 values, p.o., Ptosis
[4] = sedation, mice, p.o. as salt in saline, 30 min before tetrabenazine 50 mg/kg i.p., read-out: Anti-depressant activity, approx. ED50 values, p.o., Sedation

Structure (SMILES): CC(CC1CCCCC1)NC(=O)CN (racemic) [Example 9, hydrogen fumarate, (±)-2-Amino-N-(2-cyclohexyl)-1-methylethyl)acetamide hydrogen fumarate]
- ED50 [1, 3]: ~6 mg/kg
- ED50 [1, 4]: ~7.5 mg/kg

Structure (SMILES): CC(C)CCCC(C)(C)NC(=O)CN [2-amino-N-(1,1,5-trimethylhexyl)acetamide]
- antidepressant activity in the tetrabenazine-induced sedation test [2]: have shown antidepressant activity

Structure (SMILES): CCCCCC(C)NC(=O)CN (stereo not drawn) [2-amino-N-(1-methylhexyl)acetamide]
- antidepressant activity in the tetrabenazine-induced sedation test [2]: have shown antidepressant activity

Structure (SMILES): CC(C)(CC1CCCC1)NC(=O)CN [2-amino-N-(2-cyclopentyl-1,1-dimethylethyl)acetamide]
- antidepressant activity in the tetrabenazine-induced sedation test [2]: have shown antidepressant activity

Structure (SMILES): CCCCCC(C)(C)NC(=O)CN [Example 2, hydrogen oxalate, 2-amino-N-(1,1-dimethylhexyl)acetamide]
- ED50 [1, 3]: ~3.5 mg/kg
- ED50 [1, 4]: ~2.3 mg/kg

Structure (SMILES): CC1(NC(=O)CN)CCCCC1 [Example 3, hydrogen oxalate, 2-Amino-N-(1-methylcyclohexyl)acetamide]
- ED50 [1, 3]: ~6.92 mg/kg
- ED50 [1, 4]: ~5.69 mg/kg
- LD50 at 48 h (in vivo): > 2000 mg/kg

Structure (SMILES): CC1(NC(=O)CN)CCCCCC1 [Example 4, hydrogen oxalate, 2-Amino-N-(1-methylcycloheptyl)acetamide]
- ED50 [1, 3]: ~5 mg/kg
- ED50 [1, 4]: ~10.6 mg/kg
- LD50 at 48 h (in vivo): 1110 mg/kg

Structure (SMILES): CCCCC(C)(C)NC(=O)CN.O=C(O)C(=O)O [Example 5, hydrogen oxalate, 2-amino-N-(1,1-dimethylpentyl)acetamide hydrogen oxalate]
- ED50 [1, 3]: ~20 mg/kg
- ED50 [1, 4]: ~10 mg/kg
- LD50 at 48 h (in vivo): 536 mg/kg

Structure (SMILES): CCCC(C)CC(C)(C)NC(=O)CN (stereo not drawn) [Example 6, hydrogen fumarate, 2-amino-N-(1,1,3-trimethylhexyl)acetamide]
- ED50 [1, 3]: ~18.7 mg/kg
- ED50 [1, 4]: ~9.5 mg/kg

Structure (SMILES): CCCCCCC(C)(C)NC(=O)CN [Example 7, hydrogen fumarate, 2-Amino-N-(1,1-dimethylheptyl)acetamide]
- LD50 at 48 h (in vivo): 1000 mg/kg

Structure (SMILES): CCCCCC(C)NC(=O)CN.O=C(O)CCC(=O)O (stereo not drawn) [Example 8, hydrogen succinate, 2-Amino-N-(1-methylhexyl)acetamide hydrogen succinate]
- ED50 [1, 3]: ~3.8 mg/kg
- ED50 [1, 4]: ~2.7 mg/kg
- LD50 at 48 h (in vivo): 500 mg/kg

Structure (SMILES): CC(C)(CC1CCCC1)NC(=O)CN.CCO.O=C(O)/C=C/C(=O)O [Example 11, hydrogen fumarate, 2-Amino-N-(1,1-dimethyl-2-cyclopentylethyl)acetamide hydrogen fumarate monoethanolate]
- ED50 ([1]; read-out: Anti-depressant activity, approx. ED50 values, p.o., Ptosis): ~5 mg/kg
- ED50 ([1]; read-out: Anti-depressant activity, approx. ED50 values, p.o., Sedation): ~5 mg/kg
- LD50 at 48 h (in vivo): 575 mg/kg

Structure (SMILES): CC(C)CCCC(C)(C)NC(=O)CN [Example 12, hydrogen succinate, 2-amino-N-(1,1,5-trimethylhexyl)acetamide]
- ED50 [1, 3]: ~8 mg/kg
- ED50 [1, 4]: ~2.5 mg/kg
